Key:
[1] = molecular target: T1, HCV polymerase (NS5B) type 1b (Hepatitis C virus genotype 1b, UniProt P26663); test: Assay of enzyme (HCV polymerase) inhibitory activity, type 1b enzyme; format: biochemical, HCV BK strain (type 1b)
T1 construct: a region encoding NS5B (J Virol 1991 March, 65(3), 1105-13, 544 amino acids after deletion of 47 amino acids on the C-terminal); 6xHis (C); made in house; host or cells: Escherichia coli
How it was run: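 NS5B from HCV BK strain (type 1b), C-terminal 47 aa deleted, C-terminal His6-tagged, E. coli-expressed, 0.5 μg/ml, with ~450 nt substrate RNA carrying the 3′ UTR (polyU, 3′X) at 5 μg/ml. Incubation 60 min at 25 °C with 50 μM ATP/GTP/CTP, 2 μM UTP plus [3H]UTP, pH 7.5 Tris.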

[2] = molecular target: T2, HCV polymerase (NS5B) type 1a (Hepatitis C virus genotype 1a, UniProt P26664); test: Assay of enzyme (HCV polymerase) inhibitory activity, type 1a enzyme; format: biochemical, HCV type 1a (cloned from the blood of patients)
T2 construct: made in house; host or cells: Escherichia coli (by the 'similar method' of the 1b enzyme)
How it was run: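 Patient-derived type 1a NS5B (C-terminal 47-aa deletion, His-tagged, E. coli-expressed) at 1.5 μg/ml was reacted with 5 μg/ml 3′UTR-containing substrate RNA, 50 μM ATP/GTP/CTP, 2 μM UTP plus [3H]UTP, pH 7.5, 25° C for 60 min. TCA-precipitated RNA radioactivity was counted; IC50 from ± compound.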

[3] = HCV polymerase inhibitory activity (IC50), 1b, type 1b enzyme 0.5 μg/ml, 25° C., 60 min
[4] = HCV polymerase inhibitory activity (IC50), 1a, type 1a enzyme 1.5 μg/ml, 25° C., 60 min
[5] = HCV polymerase inhibitory activity IC50, 1b, type 1b enzyme
[6] = HCV polymerase inhibitory activity IC50, 1a, type 1a enzyme

Row | SMILES | IC50 [1, 3] | IC50 [2, 4] | IC50 [1, 5] | IC50 [2, 6]
1 | CC(=O)N1CCN(S(=O)(=O)c2ccc(C(C)C)cc2)C(C(=O)NCc2ccccc2)C1 (stereo not drawn) [Example 49, 4-acetyl-1-(4-isopropyl-benzenesulfonyl)-piperazine-2-carboxylic acid benzylamide] | > 1000 nM | > 1000 nM |  | 
2 | CCC(F)(F)c1ccc(CNC(=O)[C@H]2CN(C(=O)Cn3nnc(N)n3)CCN2S(=O)(=O)c2ccc(OC(F)(F)F)cc2)cc1 [Example 1096, (R)-4-[2-(5-amino-tetrazol-2-yl)-acetyl]-1-(4-trifluoromethoxy-benzenesulfonyl)-piperazine-2-carboxylic acid 4-(1,1-difluoro-propyl)-benzylamide] |  |  | < 100 nM | < 100 nM
3 | CC(=O)N1CCN(S(=O)(=O)c2ccc(C(C)(C)C)cc2)[C@@H](C(=O)NCc2ccc(C(C)C)cc2)C1 [Example 208, (R)-4-acetyl-1-(4-tert-butyl-benzenesulfonyl)-piperazine-2-carboxylic acid 4-isopropyl-benzylamide] | < 100 nM | < 100 nM |  | 
4 | CCCc1ccc(CNC(=O)[C@H]2CN(c3cnc4cnccc4n3)CCN2S(=O)(=O)c2ccc(I)cc2)cc1 [Example 777, (R)-1-(4-iodo-benzenesulfonyl)-4-pyrido[3,4-b]pyrazin-2-yl-piperazine-2-carboxylic acid 4-propyl-benzylamide] |  |  | < 100 nM | < 100 nM
5 | CC(=O)N1CCN(S(=O)(=O)c2ccc(C(C)C)cc2)C(C(=O)NCc2ccccc2Cl)C1 (stereo not drawn) [Example 34, 4-acetyl-1-(4-isopropyl-benzenesulfonyl)-piperazine-2-carboxylic acid 2-chloro-benzylamide] | > 1000 nM | > 1000 nM |  | 
6 | CC(=O)N1CCN(S(=O)(=O)c2ccc(C(C)C)cc2)C(C(=O)NCc2ccccc2F)C1 (stereo not drawn) [Example 67, 4-acetyl-1-(4-isopropyl-benzenesulfonyl)-piperazine-2-carboxylic acid 2-fluoro-benzylamide] | > 1000 nM | > 1000 nM |  | 
7 | CC(C)c1ccc(CNC(=O)[C@H]2CN(C(=O)Cn3nnc(CC(=O)O)n3)CCN2S(=O)(=O)c2ccc(C(F)(F)F)cc2)cc1 [Example 310, (2-{2-[(R)-3-(4-isopropyl-benzylcarbamoyl)-4-(4-trifluoromethyl-benzenesulfonyl)-piperazin-1-yl]-2-oxo-ethyl}-2H-tetrazol-5-yl)-acetic acid] | < 100 nM | 100 to 1000 nM |  | 
8 | CCCc1ccc(CNC(=O)[C@H]2CN(c3nc4c(C(=O)OCC)cncc4s3)CCN2S(=O)(=O)c2ccc(OC(F)(F)F)cc2)cc1 [Example 1083, 2-[(R)-3-(4-propyl-benzylcarbamoyl)-4-(4-trifluoromethoxy-benzenesulfonyl)-piperazin-1-yl]-thiazolo[5,4-c]pyridine-7-carboxylic acid ethyl ester] |  |  | < 100 nM | < 100 nM
9 | O=C(NCc1ccc(OC(F)(F)F)cc1)[C@H]1CN(c2nc3cn[nH]c(=O)c3s2)CCN1S(=O)(=O)c1ccc([N+](=O)[O-])cc1 [Example 835, (R)-1-(4-nitro-benzenesulfonyl)-4-(7-oxo-6,7-dihydro-thiazolo[4,5-d]pyridazin-2-yl)-piperazine-2-carboxylic acid 4-trifluoromethoxy-benzylamide] |  |  | < 100 nM | < 100 nM
10 | CC(C)c1ccc(CNC(=O)[C@H]2CN(C(=O)C(N)=O)CCN2S(=O)(=O)c2ccc(C(F)(F)F)cc2)cc1 [Example 308, (R)-4-aminooxalyl-1-(4-trifluoromethyl-benzenesulfonyl)-piperazine-2-carboxylic acid 4-isopropyl-benzylamide] | > 1000 nM | > 1000 nM |  | 
11 | CCCN(C)c1ccc(CNC(=O)C2CN(C(C)=O)CCN2S(=O)(=O)c2ccc(C(C)C)cc2)cc1 (stereo not drawn) [Example 202, 4-acetyl-1-(4-isopropyl-benzenesulfonyl)-piperazine-2-carboxylic acid 4-(methyl-propyl-amino)-benzylamide] | 100 to 1000 nM | > 1000 nM |  | 
12 | CC(C)c1ccc(CNC(=O)[C@H]2CN(c3ncc(C(=O)O)s3)CCN2S(=O)(=O)c2ccc(OC(F)(F)F)cc2)cc1 [Example 328, 2-[(R)-3-(4-isopropyl-benzylcarbamoyl)-4-(4-trifluoromethoxy-benzenesulfonyl)-piperazin-1-yl]-thiazole-5-carboxylic acid] | < 100 nM | < 100 nM |  | 
13 | O=C(NCC12CC3CC(CC(C3)C1)C2)[C@H]1CN(c2cnc3cncnc3n2)CCN1S(=O)(=O)c1ccc(OC(F)(F)F)cc1 [Example 804, (R)-4-pteridin-7-yl-1-(4-trifluoromethoxy-benzenesulfonyl)-piperazine-2-carboxylic acid (adamantan-1-ylmethyl)-amide] |  |  | > 1000 nM | > 1000 nM
14 | CCCc1ccc(CNC(=O)[C@H]2CN(c3nc4c(C(=O)O)nncc4s3)CCN2S(=O)(=O)c2ccc(CC)cc2)cc1 [Example 892, 2-[(R)-4-(4-ethyl-benzenesulfonyl)-3-(4-propyl-benzylcarbamoyl)-piperazin-1-yl]-thiazolo[4,5-d]pyridazine-4-carboxylic acid] |  |  | < 100 nM | < 100 nM
15 | O=C(NCc1ccc(OC(F)(F)F)cc1)[C@H]1CN(c2cnc3nccnc3n2)CCN1S(=O)(=O)c1ccc(OC(F)(F)F)cc1 [Example 749, (R)-4-pyrazino[2,3-b]pyrazin-2-yl-1-(4-trifluoromethoxy-benzenesulfonyl)-piperazine-2-carboxylic acid 4-trifluoromethoxy-benzylamide] |  |  | < 100 nM | < 100 nM
16 | Cc1ncc2nc(N3CCN(S(=O)(=O)c4ccc(OC(F)(F)F)cc4)[C@@H](C(=O)NCc4ccc(OC(F)(F)F)cc4)C3)sc2n1 [Example 921, (R)-4-(5-methyl-thiazolo[5,4-d]pyrimidin-2-yl)-1-(4-trifluoromethoxy-benzenesulfonyl)-piperazine-2-carboxylic acid 4-trifluoromethoxy-benzylamide] |  |  | < 100 nM | 100 to 1000 nM
17 | NC(=O)c1n[nH]c(=O)c2sc(N3CCN(S(=O)(=O)c4ccc(OC(F)(F)F)cc4)[C@@H](C(=O)NCc4ccc(OC(F)(F)F)cc4)C3)nc12 [Example 876, 7-oxo-2-[(R)-4-(4-trifluoromethoxy-benzenesulfonyl)-3-(4-trifluoromethoxy-benzylcarbamoyl)-piperazin-1-yl]-6,7-dihydro-thiazolo[4,5-d]pyridazine-4-carboxylic acid amide] |  |  | < 100 nM | < 100 nM
18 | Cn1ncc2sc(N3CCN(S(=O)(=O)c4ccc(OC(F)(F)F)cc4)[C@@H](C(=O)NCc4ccc(OC(F)(F)F)cc4)C3)nc2c1=O [Example 957, (R)-4-(5-methyl-4-oxo-4,5-dihydro-thiazolo[4,5-d]pyridazin-2-yl)-1-(4-trifluoromethoxy-benzenesulfonyl)-piperazine-2-carboxylic acid 4-trifluoromethoxy-benzylamide] |  |  | < 100 nM | < 100 nM
19 | CC(=O)N1CCN(S(=O)(=O)c2cccc(-c3ccccc3)c2)C(C(=O)NCc2ccc(C(F)(F)F)cc2)C1 (stereo not drawn) [Example 42, 4-acetyl-1-(biphenyl-3-sulfonyl)-piperazine-2-carboxylic acid 4-trifluoromethyl-benzylamide] | > 1000 nM | > 1000 nM |  | 
20 | CCCc1ccc(CNC(=O)[C@H]2CN(c3cnc4cncnc4n3)CCN2S(=O)(=O)c2ccc(OC(F)(F)F)c(CCCC(=O)O)c2)cc1 [Example 773, 4-{5-[(R)-2-(4-propyl-benzylcarbamoyl)-4-pteridin-7-yl-piperazine-1-sulfonyl]-2-trifluoromethoxy-phenyl}-butyric acid] |  |  | < 100 nM | < 100 nM
21 | COC(=O)c1cnc(N2CCN(S(=O)(=O)c3ccc(C(F)(F)F)cc3)[C@@H](C(=O)NCc3ccc(C(C)C)cc3)C2)nc1C [Example 337, 2-[(R)-3-(4-isopropyl-benzylcarbamoyl)-4-(4-trifluoromethyl-benzenesulfonyl)-piperazin-1-yl]-4-methyl-pyrimidine-5-carboxylic acid methyl ester] | 100 to 1000 nM | > 1000 nM |  | 
22 | Cc1nnc2sc(N3CCN(S(=O)(=O)c4ccc(OC(F)(F)F)cc4)[C@@H](C(=O)NCc4ccc(OC(F)(F)F)cc4)C3)nn12 [Example 933, (R)-4-(3-methyl-[1,2,4]triazolo[3,4-b][1,3,4]thiadiazol-6-yl)-1-(4-trifluoromethoxy-benzenesulfonyl)-piperazine-2-carboxylic acid 4-trifluoromethoxy-benzylamide] |  |  | < 100 nM | < 100 nM
23 | CCCc1ccc(CNC(=O)[C@H]2CN(c3cc(C)c(O)nn3)CCN2S(=O)(=O)c2ccc(OC(F)(F)F)cc2)cc1 [Example 454, (R)-4-(6-hydroxy-5-methyl-pyridazin-3-yl)-1-(4-trifluoromethoxy-benzenesulfonyl)-piperazine-2-carboxylic acid 4-propyl-benzylamide] | < 100 nM | < 100 nM |  | 
24 | CCC(F)(F)c1ccc(CNC(=O)[C@H]2CN(C(=O)c3cscn3)CCN2S(=O)(=O)c2ccc(OC(F)(F)F)cc2)cc1 [Example 520, (R)-4-(thiazole-4-carbonyl)-1-(4-trifluoromethoxy-benzenesulfonyl)-piperazine-2-carboxylic acid 4-(1,1-difluoro-propyl)-benzylamide] | 100 to 1000 nM | > 1000 nM |  | 

From patent US8017612B2, “Piperazine compound and use thereof as a HCV polymerase inhibitor” (priority 2006, dated 2011)
